Tests used:
[1] = biological target: T1, Polyunsaturated fatty acid 5-lipoxygenase (Rattus norvegicus) (UniProt P12527); experiment: The compound was tested for inhibition of 5-lipoxygenase translocation in SAR in rat RBL-2H3 cells; format: cell-based
T1 sequence (whole entry): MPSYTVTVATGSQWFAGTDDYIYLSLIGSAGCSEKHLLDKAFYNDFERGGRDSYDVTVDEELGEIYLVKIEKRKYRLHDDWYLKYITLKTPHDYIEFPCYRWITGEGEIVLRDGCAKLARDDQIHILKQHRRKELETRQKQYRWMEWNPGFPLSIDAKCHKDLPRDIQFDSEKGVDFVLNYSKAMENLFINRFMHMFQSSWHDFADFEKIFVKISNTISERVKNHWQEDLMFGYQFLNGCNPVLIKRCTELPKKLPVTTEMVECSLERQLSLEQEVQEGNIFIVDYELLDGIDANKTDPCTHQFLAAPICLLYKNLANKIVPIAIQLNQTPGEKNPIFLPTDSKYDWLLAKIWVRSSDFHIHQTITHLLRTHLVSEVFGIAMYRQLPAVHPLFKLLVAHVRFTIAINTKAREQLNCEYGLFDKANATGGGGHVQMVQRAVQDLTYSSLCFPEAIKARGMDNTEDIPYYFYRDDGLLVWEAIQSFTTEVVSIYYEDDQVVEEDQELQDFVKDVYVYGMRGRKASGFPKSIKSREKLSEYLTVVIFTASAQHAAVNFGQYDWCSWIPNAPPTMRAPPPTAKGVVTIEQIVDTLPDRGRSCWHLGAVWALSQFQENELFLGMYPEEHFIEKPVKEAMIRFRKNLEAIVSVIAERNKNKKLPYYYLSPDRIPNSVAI

Mus musculus = species on record: Mus musculus; experiment: Compound was tested for tetradecanoylphorbol acetate (TPA) induced inflammation at concentration of 1 mg/ear in mouse; format: functional
[2] = biological target: T1, Polyunsaturated fatty acid 5-lipoxygenase (Rattus norvegicus); experiment: The compound was tested for inhibition of 5-lipoxygenase in rat RBL-2H3 cells; format: cell-based
Cyclooxygenase = biological target: T2, Cyclooxygenase (Rattus norvegicus, UniProt P35355+Q63921); experiment: The compound was tested for inhibitory activity against cyclooxygenase in rat polymorphonuclear leukocytes[PMNS]; format: cell-based
T2 sequence (P35355 whole entry): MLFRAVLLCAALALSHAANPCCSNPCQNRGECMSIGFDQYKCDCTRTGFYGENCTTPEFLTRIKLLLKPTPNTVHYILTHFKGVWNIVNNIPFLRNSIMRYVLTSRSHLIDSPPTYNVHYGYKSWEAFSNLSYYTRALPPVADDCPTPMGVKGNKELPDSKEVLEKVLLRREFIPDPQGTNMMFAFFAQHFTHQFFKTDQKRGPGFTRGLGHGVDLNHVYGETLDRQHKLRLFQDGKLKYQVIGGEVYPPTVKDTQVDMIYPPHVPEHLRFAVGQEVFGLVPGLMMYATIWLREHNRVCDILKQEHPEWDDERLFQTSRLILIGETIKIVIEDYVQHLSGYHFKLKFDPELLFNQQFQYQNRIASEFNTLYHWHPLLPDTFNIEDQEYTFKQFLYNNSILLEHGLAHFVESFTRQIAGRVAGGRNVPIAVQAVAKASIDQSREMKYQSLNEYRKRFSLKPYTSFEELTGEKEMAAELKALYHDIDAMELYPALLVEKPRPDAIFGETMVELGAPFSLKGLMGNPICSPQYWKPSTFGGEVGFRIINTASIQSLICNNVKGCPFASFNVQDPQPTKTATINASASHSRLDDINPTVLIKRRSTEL
T2 sequence (Q63921 whole entry): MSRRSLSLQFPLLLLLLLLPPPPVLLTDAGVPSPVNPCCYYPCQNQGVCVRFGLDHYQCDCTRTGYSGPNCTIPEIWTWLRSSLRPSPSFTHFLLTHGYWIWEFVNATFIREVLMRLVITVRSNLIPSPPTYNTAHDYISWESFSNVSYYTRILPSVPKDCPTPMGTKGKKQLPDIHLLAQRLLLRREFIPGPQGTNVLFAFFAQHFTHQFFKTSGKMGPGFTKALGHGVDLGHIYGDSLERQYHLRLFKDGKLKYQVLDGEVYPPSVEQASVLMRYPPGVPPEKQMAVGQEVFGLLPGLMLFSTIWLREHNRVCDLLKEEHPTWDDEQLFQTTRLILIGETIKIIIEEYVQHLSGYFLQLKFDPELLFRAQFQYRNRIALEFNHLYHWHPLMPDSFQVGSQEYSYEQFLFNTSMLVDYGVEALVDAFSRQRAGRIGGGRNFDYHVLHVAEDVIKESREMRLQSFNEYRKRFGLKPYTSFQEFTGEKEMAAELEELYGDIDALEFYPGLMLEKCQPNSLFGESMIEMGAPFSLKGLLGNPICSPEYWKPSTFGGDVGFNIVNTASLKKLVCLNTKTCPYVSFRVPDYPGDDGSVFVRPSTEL

RBL-2H3 = experiment: The compound was tested for inhibition LTC4 synthesis in RBL-2H3 Cells; format: functional, Rattus norvegicus
[3] = biological target: T3, Polyunsaturated fatty acid 5-lipoxygenase (Mus musculus, UniProt P48999); experiment: The compound was tested for inhibitory activity against 5-lipoxygenase in mouse macrophages
T3 sequence (P48999 whole entry): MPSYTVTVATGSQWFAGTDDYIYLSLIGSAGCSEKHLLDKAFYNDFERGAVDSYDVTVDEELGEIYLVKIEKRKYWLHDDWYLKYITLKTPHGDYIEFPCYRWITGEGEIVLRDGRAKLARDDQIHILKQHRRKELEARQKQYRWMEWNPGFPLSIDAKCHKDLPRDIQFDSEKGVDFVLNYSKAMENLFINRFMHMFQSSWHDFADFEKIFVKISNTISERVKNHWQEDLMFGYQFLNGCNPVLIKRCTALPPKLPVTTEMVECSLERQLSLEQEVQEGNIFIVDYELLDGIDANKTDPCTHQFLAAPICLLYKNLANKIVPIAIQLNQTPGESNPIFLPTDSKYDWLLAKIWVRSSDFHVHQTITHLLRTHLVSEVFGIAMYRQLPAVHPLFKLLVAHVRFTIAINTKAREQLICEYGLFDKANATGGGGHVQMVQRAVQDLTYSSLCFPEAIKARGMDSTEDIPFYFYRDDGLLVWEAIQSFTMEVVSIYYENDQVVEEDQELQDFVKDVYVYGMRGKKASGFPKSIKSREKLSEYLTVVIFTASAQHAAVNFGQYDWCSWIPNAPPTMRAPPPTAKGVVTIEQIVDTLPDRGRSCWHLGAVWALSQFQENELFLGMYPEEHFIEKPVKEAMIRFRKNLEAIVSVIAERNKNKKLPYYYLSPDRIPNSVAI

Inhibition [1]: 500 nM
Inhibition [2]: > 10 µM
IC50 (Cyclooxygenase): 6300 nM
IC50 [3]: 200 nM
Structure (SMILES): c1ccc2nc(COc3cccc4ccccc34)ccc2c1
Inhibition (Mus musculus): 40%
Inhibition (RBL-2H3): 450 nM

Source: ChEMBL document CHEMBL1125472, “5-lipoxygenase: properties, pharmacology, and the quinolinyl(bridged)aryl class of inhibitors” (J Med Chem, 1992)
